Where “and” joins values, the source holds several entries; their conditions need not be identical. Equal values may be shown once.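 Assay format: 96-well plates, 48-hour exposure. GI50: concentration for 50% inhibition of growth.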 Calls of active or inactive are those of the source. No stated cut-off is given here; in the data, active = GI50 up to about 1.1 µM and inactive = higher.
Experiments:
Test in all cases: DTP human tumour cell line panel, 48 h
SK-OV-3 = system: SK-OV-3
NCI-H226 = system: NCI-H226
SNB-75 = system: SNB-75
LOX IMVI = system: LOX IMVI
RPMI-8226 = system: RPMI-8226
TK-10 = system: TK-10
SR = system: SR
ACHN = system: ACHN
HOP-92 = system: HOP-92
SF-539 = system: SF-539
OVCAR-8 = system: OVCAR-8
RXF 393 = system: RXF 393
SK-MEL-5 = system: SK-MEL-5
HL-60 = system: HL-60
K562 = system: K562

Measured: GI50

CC1=NN(C(=O)CC(=O)Nc2cccc(Cl)c2)C(=O)C1/N=N/c1ccc(S(N)(=O)=O)cc1 (configuration not stated)
inactive: SK-OV-3 > 100 µM | NCI-H226 > 100 µM | SNB-75 > 100 µM | LOX IMVI > 100 µM | RPMI-8226 > 100 µM | TK-10 > 100 µM | SR > 100 µM | ACHN > 100 µM | HOP-92 > 100 µM | SF-539 > 100 µM | OVCAR-8 > 100 µM | RXF 393 > 100 µM | SK-MEL-5 > 100 µM

C[Si](C)(C)C#C[I+]c1ccccc1
inactive: HL-60 22.5 µM | SK-OV-3 > 100 µM | NCI-H226 > 100 µM | SNB-75 40.4 µM | LOX IMVI 19.1 µM | TK-10 > 100 µM | K562 41.1 µM | ACHN 41.8 µM | HOP-92 40.5 µM | SF-539 28.9 µM | OVCAR-8 19.6 µM | RXF 393 47.4 µM | SK-MEL-5 45.9 µM

O/N=C1/C(=C/c2ccc(Cl)cc2)CCCC1C(NO)c1ccc(Cl)cc1 (configuration not stated)
inactive: HL-60 18.5 µM | SK-OV-3 50.8 µM | SNB-75 12.6 µM | RPMI-8226 20.9 µM | TK-10 31.7 µM | K562 24.4 µM | ACHN 31.5 µM | SF-539 25.2 µM | OVCAR-8 21.1 µM | RXF 393 12 µM | SK-MEL-5 22.7 µM

C/C(=N/OCCC(=O)O)C1CC1
inactive: HL-60 > 100 µM | SK-OV-3 > 100 µM | NCI-H226 > 100 µM | SNB-75 > 100 µM | LOX IMVI > 100 µM | RPMI-8226 > 100 µM | TK-10 > 100 µM | K562 > 100 µM | SR 90.4 µM | ACHN > 100 µM | HOP-92 > 100 µM | SF-539 > 100 µM | OVCAR-8 > 100 µM | RXF 393 > 100 µM | SK-MEL-5 > 100 µM

O=C(c1ccccc1)c1nnn(Cc2ccccc2Cn2nnc(C(=O)c3ccccc3)c2C(=O)c2ccccc2)c1C(=O)c1ccccc1
inactive: HL-60 > 100 µM | SK-OV-3 > 100 µM | NCI-H226 47.4 µM | SNB-75 > 100 µM | LOX IMVI > 100 µM | RPMI-8226 > 100 µM | TK-10 > 100 µM | K562 > 100 µM | SR > 100 µM | ACHN > 100 µM | HOP-92 > 100 µM | SF-539 > 100 µM | OVCAR-8 > 100 µM | SK-MEL-5 > 100 µM

CC(C)=CCSC1CC2C(CC1(C)O)C2(C)C (configuration not stated)
inactive: SK-OV-3 15 µM and 16.2 µM | NCI-H226 13.7 µM and 14.4 µM | SNB-75 15.8 µM and 11.5 µM | LOX IMVI 16.2 µM and 15.1 µM | RPMI-8226 17.5 µM and 21.9 µM | TK-10 18.1 µM and 16.9 µM | ACHN 17.2 µM and 17.5 µM | HOP-92 14.1 µM and 16.6 µM | SF-539 18 µM and 15.6 µM | OVCAR-8 16.6 µM and 14.1 µM

Cc1ccc(-c2cc(=S)n(-c3ccccc3)c3[nH]c(=S)n(-c4ccccc4)c(=N)c23)cc1
inactive: HL-60 > 100 µM | NCI-H226 > 100 µM | SNB-75 > 100 µM | RPMI-8226 > 100 µM | TK-10 > 100 µM | K562 > 100 µM | SR > 100 µM | ACHN > 100 µM | HOP-92 > 100 µM | SF-539 > 100 µM | OVCAR-8 > 100 µM | SK-MEL-5 > 100 µM

CN(C)/C(=N/C(=S)Nc1ccccc1)SCc1ccccc1
inactive: HL-60 18.2 µM | SK-OV-3 > 100 µM | NCI-H226 36.1 µM | SNB-75 30.3 µM | LOX IMVI 42 µM | RPMI-8226 10.3 µM | TK-10 > 100 µM | K562 12.3 µM | ACHN 45 µM | SF-539 > 100 µM | OVCAR-8 56.4 µM | RXF 393 27.7 µM | SK-MEL-5 3.14 µM

COc1ccc2c(c1)[n+]([O-])c(-c1ccccc1Cl)c(N)[n+]2[O-]
inactive: HL-60 70.3 µM | SK-OV-3 > 100 µM | NCI-H226 > 100 µM | SNB-75 75 µM | RPMI-8226 88.1 µM | K562 99.1 µM | SR > 100 µM | ACHN 86.1 µM | HOP-92 > 100 µM | SF-539 > 100 µM | OVCAR-8 > 100 µM | SK-MEL-5 39.8 µM

COc1cc(/C=C2\C(=O)N(C(=O)c3ccc(NC(C)=O)cc3)N=C2C)ccc1O
inactive: HL-60 > 100 µM | NCI-H226 > 100 µM | SNB-75 > 100 µM | LOX IMVI > 100 µM | RPMI-8226 > 100 µM | TK-10 > 100 µM | K562 > 100 µM | SR > 100 µM | ACHN > 100 µM | SF-539 > 100 µM | OVCAR-8 > 100 µM | SK-MEL-5 > 100 µM

Nc1c(-c2ccc(Br)cc2)[n+]([O-])c2ccccc2[n+]1[O-]
inactive: HL-60 82.4 µM | SK-OV-3 > 100 µM | NCI-H226 > 100 µM | SNB-75 81.3 µM | RPMI-8226 27.9 µM | K562 64.9 µM | ACHN > 100 µM | HOP-92 > 100 µM | SF-539 > 100 µM | OVCAR-8 > 100 µM | SK-MEL-5 > 100 µM

CCc1ccccc1NC(=O)C1=C(C)NC(C)=C(C(=O)Nc2ccccc2CC)C1c1ccc(NC(C)=O)cc1
inactive: HL-60 14.3 µM | SK-OV-3 > 100 µM | NCI-H226 29.4 µM | SNB-75 21.4 µM | LOX IMVI 16.1 µM | RPMI-8226 17 µM | TK-10 > 100 µM | K562 23.1 µM | ACHN 28.5 µM | HOP-92 25.8 µM | SF-539 25.9 µM | OVCAR-8 33.9 µM | RXF 393 17.4 µM | SK-MEL-5 38.1 µM

OCC1C(/C=C/c2ccoc2)ON2CCCC12 (configuration not stated)
inactive: HL-60 > 100 µM | NCI-H226 > 100 µM | SNB-75 > 100 µM | LOX IMVI > 100 µM | TK-10 > 100 µM | ACHN > 100 µM | SF-539 > 100 µM | OVCAR-8 > 100 µM | RXF 393 > 100 µM

CSC1=Nc2ccccc2N=C(c2ccccc2)C1
inactive: HL-60 15.3 µM | SK-OV-3 > 100 µM | NCI-H226 > 100 µM | SNB-75 66.5 µM | LOX IMVI 17.2 µM | TK-10 80 µM | K562 34.6 µM | SR 24 µM | ACHN > 100 µM | HOP-92 20.2 µM | SF-539 > 100 µM | OVCAR-8 61.7 µM | RXF 393 20.4 µM | SK-MEL-5 44.5 µM

CC(C)(Oc1ccc(/C=C/C(=O)c2ccccc2)cc1)C(=O)Nc1c(Cl)cccc1Cl
inactive: HL-60 14.7 µM | SK-OV-3 > 10 µM | NCI-H226 > 10 µM | SNB-75 > 10 µM | LOX IMVI > 10 µM | RPMI-8226 > 10 µM | TK-10 > 10 µM | K562 17 µM | SR 3.48 µM | ACHN > 10 µM | HOP-92 > 10 µM | SF-539 > 10 µM | OVCAR-8 > 10 µM | RXF 393 > 10 µM | SK-MEL-5 > 10 µM

Cc1nc(Nc2ccc(Cl)cc2)sc1C(=O)NNC(=O)C(=O)NN
inactive: HL-60 17.4 µM | SK-OV-3 22 µM | NCI-H226 20.3 µM | SNB-75 23.7 µM | LOX IMVI 17.6 µM | TK-10 29.5 µM | K562 25.1 µM | SR 27.5 µM | ACHN 26.4 µM | HOP-92 19.9 µM | SF-539 26.1 µM | OVCAR-8 32.5 µM | RXF 393 24.9 µM | SK-MEL-5 18.7 µM

Cc1c(C(=O)/C=C/c2ccc(N(C)C)cc2)c(=O)n(-c2ccccc2)n1C
inactive: SK-OV-3 > 100 µM | NCI-H226 > 100 µM | LOX IMVI > 100 µM | TK-10 > 100 µM | ACHN > 100 µM | HOP-92 > 100 µM | SF-539 > 100 µM | OVCAR-8 > 100 µM | RXF 393 > 100 µM

O=[N+]([O-])c1cccc(C2N3CCCCC3[C@@H]3c4[nH]c5ccccc5c4CCN23)c1 (some centres not stated)
inactive: HL-60 10.1 µM | SK-OV-3 17.8 µM | RPMI-8226 10.9 µM | TK-10 14.4 µM | K562 3.88 µM | ACHN 15.9 µM | HOP-92 16 µM | SF-539 14.8 µM | OVCAR-8 31.4 µM | RXF 393 5.86 µM | SK-MEL-5 14.2 µM

COc1cc(/C=C/C(=O)c2cccc3ccccc23)cc(OC)c1OC
inactive: HL-60 1.72 µM | SK-OV-3 15.2 µM | NCI-H226 15.3 µM | SNB-75 10.3 µM | LOX IMVI 3.03 µM | TK-10 14.2 µM | K562 3.02 µM | SR 3.13 µM | ACHN 12 µM | OVCAR-8 1.98 µM | RXF 393 2.33 µM | SK-MEL-5 10.4 µM

c1ccc(-c2nnc(-c3nn(-c4ccccc4)c4nc5ccccc5nc34)o2)cc1
inactive: HL-60 20.6 µM | SK-OV-3 > 100 µM | NCI-H226 18.2 µM | SNB-75 > 100 µM | LOX IMVI > 100 µM | RPMI-8226 39.1 µM | TK-10 > 100 µM | K562 31 µM | ACHN 92.3 µM | SF-539 68.4 µM | OVCAR-8 51.9 µM | RXF 393 4.3 µM

Nc1cc(C(=O)NC2C3CC4CC(C3)CC2C4)nc(S)n1 (configuration not stated)
inactive: HL-60 > 100 µM | SK-OV-3 > 100 µM | NCI-H226 > 100 µM | SNB-75 > 100 µM | K562 > 100 µM | SR > 100 µM | HOP-92 > 100 µM | SF-539 > 100 µM | OVCAR-8 > 100 µM | RXF 393 > 100 µM | SK-MEL-5 > 100 µM
